Results from patent US20240132492A1, “PYRIDOPYRIMIDINE-BASED COMPOUND AND APPLICATION THEREOF” (JINAN UNIVERSITY, priority 2021, published 2024).

What was measured:
Assay type in all cases: cell-based
[1] = molecular target: AKT3 (Homo sapiens, UniProt Q9Y243); experiment: Western Blot, degradation of AKT3 protein in H1975-OR cells; design: endogenous in cells; host or cells: H1975-OR (osimertinib-resistant H1975); conditions: 24 hours, maximum degradation rate; for Dmax at 1 µM: 1000 nM
Method: (§1) Cell line: Non-small cell lung cancer H1975-OR cell line, which is an Osimertinib resistant H1975 cell line, and could be obtained through low dose gradual addition culture. Specific method: H1975 cells were spread in a 10 cm culture dish at a convergence rate of 60-70%, added 50 nM of Osimertinib to the culture medium. After the cell state stabilized, the concentration of Osimertinib was gradually double to 3 μM.
(§2) Conventional Western Blot (immunoblotting) was used for detection, as follows: a certain number of H1975-OR cells were planted on a 96 well plate, adherent cultured in an incubator overnight, and added a certain concentration of compound to act for 24 hours. 1×SDS lysis buffer with protease and phosphatase inhibitors was used to lyse cells. Cell lysates were separated by SDS-PAGE and transferred to PVDF membrane. Then, at room temperature, the PCDF membrane was taken out and immersed in a sealing solution (5% BSA TBS solution containing 0.5% Tween-20) for sealing treatment for 1 hour, and then incubated with a specific primary antibody at 4° C. overnight. The imprints were washed with TBST and incubated with horseradish peroxidase (HRP) labeled secondary antibodies at room temperature for 2 hours. Finally, ECL plus fluorescence detection reagent (Thermo Scientific, Waltham, MA) was used for protein development, and the Amersham Imager 600 system (GE, America) was used for photography. The detection results were processed using ImageJ software to obtain the grayscale value G (Density).

[2] = system: A431; experiment: CCK-8 tumor cell proliferation, A431; conditions: Homo sapiens, A-431, A431 cells, 72 hours
Method: (§3) Tumor cells (see Table 2 to Table 5) were inoculated in 96-well plates in complete culture medium (2000-3000 cells/well). After overnight incubation, the compounds with different concentrations (0.000508 μM-10 μM) were used to treat the cells separately for 72 hours. CCK-8 (Cell Counting Kit 8, Dojindo Laboratories, Kumamoto, Japan) experiment was used to evaluate cell proliferation. GraphPad Prism 5.0 software (La Jolla, CA) was used to calculate the half-maximal inhibitory concentration (IC50) values by fitting the concentration response curve. Each IC50 value was represented as an average value±SD.

[3] = system: H1299; experiment: CCK-8 tumor cell proliferation, H1299; conditions: Homo sapiens, NCI-H1299, H1299 cells, 72 hours
Method: as §3

[4] = molecular target: T1, AKT1 (Homo sapiens, UniProt P31749); experiment: Western Blot, degradation of AKT1 protein in H1975-OR cells; conditions: 24 hours, maximum degradation rate; for Dmax at 1 µM: 1000 nM
T1 construct: AKT1, AKT2, and AKT3 proteins in H1975-OR cells; endogenous in cells; host or cells: H1975-OR (osimertinib-resistant H1975)
Method: as §1, §2

[5] = system: HCC827; experiment: CCK-8 tumor cell proliferation, HCC827; conditions: Homo sapiens, HCC827 cells, 72 hours
Method: as §3

[6] = molecular target: T2, AKT2 (Homo sapiens, UniProt P31751); experiment: Western Blot, degradation of AKT2 protein in H1975-OR cells; conditions: 24 hours, maximum degradation rate; for Dmax at 1 µM: 1000 nM
T2 construct: AKT1, AKT2, and AKT3 proteins in H1975-OR cells; endogenous in cells; host or cells: H1975-OR (osimertinib-resistant H1975)
Method: as §1, §2

[7] = system: PC-9; experiment: CCK-8 tumor cell proliferation, PC-9; conditions: Homo sapiens, PC-9 cells, 72 hours
Method: as §3

[8] = system: H1975; experiment: CCK-8 tumor cell proliferation, H1975; conditions: 72 hours
Method: as §3

[9] = system: H1975OR; experiment: CCK-8 tumor cell proliferation, H1975OR; conditions: H1975OR cells (Osimertinib resistant), 72 hours
Method: as §1, §3

[10] = Homo sapiens, NCI-H1975, H1975 cells

Chain of AKT3 (Q9Y243 whole entry): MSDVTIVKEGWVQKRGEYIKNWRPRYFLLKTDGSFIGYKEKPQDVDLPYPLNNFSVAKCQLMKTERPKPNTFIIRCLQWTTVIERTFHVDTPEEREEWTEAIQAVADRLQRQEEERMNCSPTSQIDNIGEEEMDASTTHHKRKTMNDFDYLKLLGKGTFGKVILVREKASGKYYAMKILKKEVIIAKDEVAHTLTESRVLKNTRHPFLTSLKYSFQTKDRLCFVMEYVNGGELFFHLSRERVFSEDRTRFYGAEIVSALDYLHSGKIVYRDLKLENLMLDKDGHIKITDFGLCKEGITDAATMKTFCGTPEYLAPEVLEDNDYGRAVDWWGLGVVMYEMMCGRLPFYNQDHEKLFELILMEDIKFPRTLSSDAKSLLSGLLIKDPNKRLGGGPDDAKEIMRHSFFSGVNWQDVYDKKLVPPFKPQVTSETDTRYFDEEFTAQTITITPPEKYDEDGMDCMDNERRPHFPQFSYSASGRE
T2 sequence (P31751 whole entry): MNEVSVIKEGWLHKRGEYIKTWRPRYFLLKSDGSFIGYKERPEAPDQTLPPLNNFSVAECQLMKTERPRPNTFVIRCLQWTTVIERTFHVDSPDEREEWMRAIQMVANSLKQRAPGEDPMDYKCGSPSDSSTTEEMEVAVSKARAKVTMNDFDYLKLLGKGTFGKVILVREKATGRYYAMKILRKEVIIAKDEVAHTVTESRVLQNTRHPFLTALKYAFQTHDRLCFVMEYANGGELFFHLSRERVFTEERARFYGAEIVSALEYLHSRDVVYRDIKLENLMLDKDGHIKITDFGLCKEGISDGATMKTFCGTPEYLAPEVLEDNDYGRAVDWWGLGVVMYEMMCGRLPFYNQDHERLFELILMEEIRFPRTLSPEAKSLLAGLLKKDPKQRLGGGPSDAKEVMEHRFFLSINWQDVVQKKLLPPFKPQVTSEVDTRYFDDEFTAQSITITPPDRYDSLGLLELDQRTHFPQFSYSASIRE
T1 sequence (P31749 whole entry): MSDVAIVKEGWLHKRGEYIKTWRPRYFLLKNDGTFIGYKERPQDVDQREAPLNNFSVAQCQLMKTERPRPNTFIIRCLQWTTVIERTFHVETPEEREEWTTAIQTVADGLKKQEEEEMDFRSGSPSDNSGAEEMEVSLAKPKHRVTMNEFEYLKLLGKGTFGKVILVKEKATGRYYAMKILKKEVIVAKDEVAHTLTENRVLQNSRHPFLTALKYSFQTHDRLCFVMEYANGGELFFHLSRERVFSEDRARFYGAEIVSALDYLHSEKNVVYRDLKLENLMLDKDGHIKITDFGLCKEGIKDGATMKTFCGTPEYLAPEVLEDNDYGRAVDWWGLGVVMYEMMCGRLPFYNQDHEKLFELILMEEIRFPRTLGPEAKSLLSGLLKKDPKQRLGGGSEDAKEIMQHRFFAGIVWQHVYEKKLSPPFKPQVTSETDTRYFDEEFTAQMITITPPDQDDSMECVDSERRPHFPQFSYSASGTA

Molecule | Dmax at 1 µM [1] [%] | IC50 [2] [µM] | IC50 [3] [µM] | Dmax at 1 µM [4] [%] | IC50 [5] [µM] | Dmax at 1 µM [6] [%] | IC50 [7] [µM] | IC50 [8, 10] [µM] | IC50 [9] [µM] | Dmax (%) at 1000 nM AKT3 [1] [%] | Dmax (%) at 1000 nM AKT1 [4] [%] | Dmax (%) at 1000 nM AKT2 [6] [%] | IC50 ([8]; H1975 cells) [µM]
COc1cc(N2CCN(CCCCCCCCCCCCNC(=O)CC34CC5CC(CC(C5)C3)C4)CC2)ccc1Nc1ncc2c(C)cc(=O)n(-c3cccc(NC(=O)C(C)(C)C)c3)c2n1 [ZX-HYT-12] | 75.4 | 0.155 ± 0.0075 | 2.17 ± 0.419 | 56 | 0.549 ± 0.247 | 0 | 0.466 ± 0.0241 | 0.554 ± 0.213 | 0.136 ± 0.0165 | – | – | – | –
C=CC(=O)Nc1cccc(-n2c(=O)cc(C)c3cnc(Nc4ccc(N5CCN(CCCCCCCCCCNC(=O)CC67CC8CC(CC(C8)C6)C7)CC5)cc4OC)nc32)c1 [ZX-HYT-04, N-(3-(2-((4-(4-(10-(2-(((3R, 5R, 7R)-adamantan-1-yl)acetylamino)decyl)piperazin-1-yl)-2-methoxyphenyl)amino)-5-methyl-7-oxypyridino [2,3-d]pyrimidin-8 (7H)-yl)phenyl)acrylamide] | 26.6 | 0.0102 ± 0.002 | 0.305 ± 0.166 | 0 | 0.0555 ± 0.0327 | 0 | 0.0181 ± 0.00105 | 1.77 ± 0.187 | 0.083 ± 0.019 | – | – | – | –
C=CC(=O)Nc1cccc(-n2c(=O)cc(C)c3cnc(Nc4ccc(N5CCN(CCCCCCCCCCCCCCNC(=O)CC67CC8CC(CC(C8)C6)C7)CC5)cc4OC)nc32)c1 [ZX-HYT-06, N-(3-(2-((4-(4-(14-(2-((3R, 5R, 7R)-adamantan-1-yl)acetylamino)tetradecyl)piperazin-1-yl)-2-methoxyphenyl)amino)-5-methyl-7-oxypyridino [2,3-d]pyrimidin-8 (7H)-yl)phenyl) acrylamide] | 62.9 | 0.26 ± 0.047 | 0.163 ± 0.0134 | 0 | 0.163 ± 0.0134 | 47 | 0.0732 ± 0.00431 | 0.837 ± 0.11 | 0.125 ± 0.012 | – | – | – | –
COc1cc(N2CCN(CCCCCCCCCCCCNC(=O)CC34CC5CC(CC(C5)C3)C4)CC2)ccc1Nc1ncc2c(C)cc(=O)n(C3CCCC3)c2n1 [ZX-HYT-24, 2-(((3R, 5R, 7R)-adamantan-1-yl)-N-(12-(4-(4-(8-cyclopentyl-5-methyl-7-oxy-7,8-dihydropyridinyl [2,3-d]pyrimidin-2-yl)amino)-3-methoxyphenyl)piperazin-1-yl)dodecyl) acetamide] | 51.5 | 0.212 ± 0.0653 | – | 0 | 1.4 ± 0.248 | 0 | – | 2.67 ± 0.471 | 0.734 ± 0.00594 | – | – | – | –
COc1cc(N2CCN(CCCCCCCCCCCCNC(=O)CC34CC5CC(CC(C5)C3)C4)CC2)ccc1Nc1ncc2c(C)cc(=O)n(-c3cccc(NC(=O)C4CCCCC4)c3)c2n1 [ZX-HYT-13, N-(3-(2-((4-(4-(12-(2-(((3R, 5R, 7R)-adamantan-1-yl)acetylamino)dodecyl)piperazin-1-yl)-2-methoxyphenyl)amino)-5-methyl-7-oxypyridino [2,3-d]pyrimidin-8 (7H)-yl)phenyl)cyclohexane formamide] | – | 2.29 ± 0.0474 | > 10 | – | 10.7 ± 3.88 | – | > 10 | 6.96 ± 6.04 | 0.216 ± 0.032 | – | – | – | –
N-(3-(2-((4-(4-(12-((2-((3R, 5R, 7R)-adamantan-1-yl) ethyl) amino) dodecyl) piperazin-1-yl)-2-methoxyphenyl) amino)-5-methyl-7-oxypyrano [2,3-d] pyrimidin-8 (7H)-yl) phenyl) cyclopropane formamide [ZX-HYT-29] | – | – | – | – | – | – | – | – | 0.98 ± 0.25 | 54.7 | 57.51 | 36.43 | 0.98 ± 0.21
COc1cc(N2CCN(CCCCCCCCCCCCNC(=O)CC34CC5CC(CC(C5)C3)C4)CC2)ccc1Nc1ncc2c(C)cc(=O)n([C@H]3CCCN(C(=O)C4CC4)C3)c2n1 [ZX-HYT-22] | 25 | – | – | 0 | – | 0 | – | 0.014 | 0.00682 | – | – | – | –
COc1cc(N2CCN(CCCCCCCCCCCCNC(=O)CC34CC5CC(CC(C5)C3)C4)CC2)ccc1Nc1ncc2c(C)cc(=O)n([C@H]3CCN(C(=O)C4CC4)C3)c2n1 [ZX-HYT-37] | 17.5 | – | – | 0 | – | 0 | – | 4.15 ± 0.462 | 6.31 ± 0.645 | – | – | – | –
COc1cc(N2CCN(CCCCCCCCCCCCNC(=O)CC34CC5CC(CC(C5)C3)C4)CC2)ccc1Nc1ncc2c(C)cc(=O)n([C@H]3CC[C@@H](NC(=O)C4CC4)C3)c2n1 [ZX-HYT-20, N-((1R,3S)-3-(2-((4-(4-(12-(2-((3R, 5R, 7R)-adamantan-1-yl)acetylamino)dodecyl)piperazin-1-yl)-2-methoxyphenyl)amino)-5-methyl-7-oxypyridino [2,3-d]pyrimidin-8 (7H)-yl)cyclopentyl) cyclopropane formamide] | – | 0.106 | – | – | – | – | 0.295 | – | – | – | – | – | –

Further lines, with some results ahead:

Dmax at 1 µM [1] [%] | IC50 [2] [µM] | IC50 [3] [µM] | Dmax at 1 µM [4] [%] | IC50 [5] [µM] | Dmax at 1 µM [6] [%] | IC50 [7] [µM] | IC50 [8, 10] [µM] | IC50 [9] [µM] | Molecule | Dmax (%) at 1000 nM AKT3 [1] [%] | Dmax (%) at 1000 nM AKT1 [4] [%] | Dmax (%) at 1000 nM AKT2 [6] [%] | IC50 ([8]; H1975 cells) [µM]
89.1 | 0.0299 ± 0.0028 | 0.876 ± 0.283 | 78.9 | 0.0954 ± 0.0331 | 64.8 | 0.0536 ± 0.00753 | 0.844 ± 0.822 | 0.074 ± 0.004 | C=CC(=O)Nc1cccc(-n2c(=O)cc(C)c3cnc(Nc4ccc(N5CCN(CCCCCCCCNC(=O)CC67CC8CC(CC(C8)C6)C7)CC5)cc4OC)nc32)c1 [ZX-HYT-03, N-(3-(2-((4-(4-(8-(2-(((3R, 5R, 7R)-adamantan-1-yl)acetamido)octyl)piperazin-1-yl)-2-methoxyphenyl)amino)-5-methyl-7-oxypyridino [2,3-d]pyrimidin-8 (7H)-yl)phenyl)acrylamide] | – | – | – | –
– | > 10 | > 10 | – | > 10 | – | 4.8 ± 0.501 | > 10 | > 10 | COc1cc(N2CCN(CCCCCCCCCCCCNC(=O)CC34CC5CC(CC(C5)C3)C4)CC2)ccc1Nc1ncc2c(C)cc(=O)n(-c3ccc(NC(=O)C4CC4)cc3)c2n1 [ZX-HYT-15, N-(4-(2-((4-(4-(12-(2-(((3R, 5R, 7R)-adamantan-1-yl)acetylamino)dodecyl)piperazin-1-yl)-2-methoxyphenyl)amino)-5-methyl-7-oxypyridino [2,3-d]pyrimidin-8 (7H)-yl)phenyl)cyclopropane formamide] | – | – | – | –
– | > 10 | > 10 | – | > 10 | – | > 10 | > 10 | > 10 | C=CC(=O)Nc1ccc(-n2c(=O)cc(C)c3cnc(Nc4ccc(N5CCN(CCCCCCCCCCCCNC(=O)CC67CC8CC(CC(C8)C6)C7)CC5)cc4OC)nc32)cc1 [ZX-HYT-14, N-(4-(2-((4-(4-(12-(2-(((3R, 5R, 7R)-adamantan-1-yl)acetylamino)dodecyl)piperazin-1-yl)-2-methoxyphenyl)amino)-5-methyl-7-oxypyridino [2,3-d]pyrimidin-8 (7H)-yl)phenyl)acrylamide] | – | – | – | –
29.1 | – | – | 32.8 | – | 17.6 | – | 2.4 ± 0.226 | 2.35 ± 0.11 | COc1cc(N2CCN(CCCCCCCCCCCCNC(=O)CC34CC5CC(CC(C5)C3)C4)CC2)ccc1Nc1ncc2c(C)cc(=O)n(-c3cccc(NC4CNC4)c3)c2n1 [ZX-HYT-45, 2-((3R, 5R, 7R)-adamantan-1-yl)-N-(12-(4-(4-((8-(3-(azacyclobutane-3-ylamino)phenyl)-5-methyl-7-oxy-7,8-dihydropyridino [2,3-d]pyrimidin-2-yl)amino)-3-methoxyphenyl)piperazin-1-yl)dodecyl) acetamide] | – | – | – | –
56.6 | – | – | 55.4 | – | 67.5 | – | 1.15 ± 0.42 | 0.25 ± 0.12 | COc1cc(N2CCN(CCCCCCCCNC(=O)C3CCC(F)(F)CC3)CC2)ccc1Nc1ncc2c(C)cc(=O)n(-c3cccc(NC(=O)C4CC4)c3)c2n1 [ZX-HYT-34] | – | – | – | –
